Laboratory results as given in ChEMBL document CHEMBL5465560, “Selectivity Literature for EUbOPEN Chemogenomic Library” (2024).
Each block holds one molecule with its values, some of them ahead of it.

Experiments:
[1] = target: Serine/threonine-protein kinase 10 (Homo sapiens) (UniProt O94804); assay: Selectivity interaction (ActivX KiNativ screen (kinase selectivity in THP-1 cell lysates)) EUB0000639a STK10; assay type: subcellular; settings: lysate, at 0.04 µM
[2] = target: Serine/threonine-protein kinase ATR (Homo sapiens) (UniProt Q13535); assay: Selectivity interaction (ActivX KiNativ screen (kinase selectivity in THP-1 cell lysates)) EUB0000639a ATR; assay type: subcellular; settings: lysate
Chain of Serine/threonine-protein kinase ATR (Homo sapiens) (Q13535 whole entry, looked up): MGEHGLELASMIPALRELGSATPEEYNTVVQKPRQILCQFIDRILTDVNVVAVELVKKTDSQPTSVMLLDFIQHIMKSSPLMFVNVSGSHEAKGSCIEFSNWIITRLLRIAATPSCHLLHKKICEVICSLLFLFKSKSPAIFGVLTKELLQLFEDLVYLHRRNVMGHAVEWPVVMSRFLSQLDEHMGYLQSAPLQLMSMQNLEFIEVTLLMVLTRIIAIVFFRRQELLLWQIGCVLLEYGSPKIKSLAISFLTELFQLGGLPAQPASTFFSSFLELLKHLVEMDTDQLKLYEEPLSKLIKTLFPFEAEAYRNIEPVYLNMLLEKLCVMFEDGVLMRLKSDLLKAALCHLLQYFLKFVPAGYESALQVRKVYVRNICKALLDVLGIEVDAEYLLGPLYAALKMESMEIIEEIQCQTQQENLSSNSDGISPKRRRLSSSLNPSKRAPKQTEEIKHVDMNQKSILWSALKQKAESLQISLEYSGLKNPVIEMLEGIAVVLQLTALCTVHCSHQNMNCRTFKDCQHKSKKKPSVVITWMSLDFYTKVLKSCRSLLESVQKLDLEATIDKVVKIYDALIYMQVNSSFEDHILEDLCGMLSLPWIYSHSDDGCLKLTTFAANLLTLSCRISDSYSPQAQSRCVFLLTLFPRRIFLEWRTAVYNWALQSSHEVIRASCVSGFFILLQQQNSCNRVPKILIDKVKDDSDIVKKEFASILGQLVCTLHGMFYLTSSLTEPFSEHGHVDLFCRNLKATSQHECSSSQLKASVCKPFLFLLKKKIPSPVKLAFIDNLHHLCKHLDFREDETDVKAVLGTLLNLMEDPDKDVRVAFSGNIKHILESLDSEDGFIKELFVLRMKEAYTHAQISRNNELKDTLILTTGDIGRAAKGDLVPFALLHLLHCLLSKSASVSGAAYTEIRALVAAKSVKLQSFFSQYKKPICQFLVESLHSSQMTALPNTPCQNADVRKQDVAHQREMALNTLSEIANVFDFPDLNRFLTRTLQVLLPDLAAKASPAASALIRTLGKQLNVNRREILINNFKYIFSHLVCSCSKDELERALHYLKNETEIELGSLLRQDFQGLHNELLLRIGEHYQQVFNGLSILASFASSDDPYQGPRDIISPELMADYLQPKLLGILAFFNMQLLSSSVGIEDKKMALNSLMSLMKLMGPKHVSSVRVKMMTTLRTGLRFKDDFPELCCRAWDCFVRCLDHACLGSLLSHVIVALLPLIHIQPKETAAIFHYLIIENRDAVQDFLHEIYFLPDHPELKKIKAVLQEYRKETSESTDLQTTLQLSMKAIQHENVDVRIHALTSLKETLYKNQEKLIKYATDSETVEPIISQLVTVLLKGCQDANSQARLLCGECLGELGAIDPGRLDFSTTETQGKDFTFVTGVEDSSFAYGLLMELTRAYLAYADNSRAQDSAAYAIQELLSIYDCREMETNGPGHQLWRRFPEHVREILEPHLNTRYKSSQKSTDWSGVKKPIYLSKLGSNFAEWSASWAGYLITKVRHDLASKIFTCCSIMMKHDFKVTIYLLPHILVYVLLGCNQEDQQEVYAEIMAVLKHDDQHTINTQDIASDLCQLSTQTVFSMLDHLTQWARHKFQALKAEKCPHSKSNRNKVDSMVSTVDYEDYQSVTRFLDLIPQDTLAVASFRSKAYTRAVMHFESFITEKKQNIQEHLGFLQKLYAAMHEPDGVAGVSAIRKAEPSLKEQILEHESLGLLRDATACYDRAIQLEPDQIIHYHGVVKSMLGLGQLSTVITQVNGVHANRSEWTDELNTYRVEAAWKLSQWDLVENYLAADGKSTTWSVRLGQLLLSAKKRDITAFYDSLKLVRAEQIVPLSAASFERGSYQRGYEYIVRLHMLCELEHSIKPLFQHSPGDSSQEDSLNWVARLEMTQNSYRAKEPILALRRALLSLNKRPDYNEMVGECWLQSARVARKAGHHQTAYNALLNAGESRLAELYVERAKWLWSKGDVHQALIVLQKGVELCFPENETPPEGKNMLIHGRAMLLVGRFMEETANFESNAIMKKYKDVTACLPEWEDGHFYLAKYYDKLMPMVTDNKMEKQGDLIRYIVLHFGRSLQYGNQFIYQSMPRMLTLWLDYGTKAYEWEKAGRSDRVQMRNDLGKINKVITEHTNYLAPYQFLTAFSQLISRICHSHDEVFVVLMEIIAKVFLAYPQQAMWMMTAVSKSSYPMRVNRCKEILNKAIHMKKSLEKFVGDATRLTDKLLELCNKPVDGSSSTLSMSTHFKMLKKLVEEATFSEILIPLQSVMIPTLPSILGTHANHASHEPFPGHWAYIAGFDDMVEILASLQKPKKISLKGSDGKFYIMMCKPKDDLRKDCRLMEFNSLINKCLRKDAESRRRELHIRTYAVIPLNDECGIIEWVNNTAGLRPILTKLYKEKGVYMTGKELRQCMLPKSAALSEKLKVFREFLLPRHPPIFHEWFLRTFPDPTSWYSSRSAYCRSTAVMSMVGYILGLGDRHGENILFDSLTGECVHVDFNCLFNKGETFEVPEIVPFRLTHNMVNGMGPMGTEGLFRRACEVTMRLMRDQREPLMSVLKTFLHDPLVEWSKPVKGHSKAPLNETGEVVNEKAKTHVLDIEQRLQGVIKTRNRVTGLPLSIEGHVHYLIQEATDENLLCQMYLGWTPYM

[3] = target: Glycogen synthase kinase-3 alpha (Homo sapiens, UniProt P49840); assay: Selectivity interaction (Rxn Biology Kinase assay) EUB0001632a GSK3A; settings: at 10 µM
[4] = target: RAC-alpha serine/threonine-protein kinase (Homo sapiens, UniProt P31749); assay: Selectivity interaction (Kinase panel (Z-LYTE Assay)) EUB0001632a AKT1; settings: at 10 µM
[5] = tested on: Tyrosine-protein kinase ABL1 (Homo sapiens), P00519 [Q252H]; settings: at 10 µM
[6] = target: T1, Homeodomain-interacting protein kinase 4 (Homo sapiens) (UniProt Q8NE63); assay: Selectivity interaction (KinomeScan (DiscoverX)) EUB0000595a HIPK4; settings: at 10 µM
T1 sequence (whole entry): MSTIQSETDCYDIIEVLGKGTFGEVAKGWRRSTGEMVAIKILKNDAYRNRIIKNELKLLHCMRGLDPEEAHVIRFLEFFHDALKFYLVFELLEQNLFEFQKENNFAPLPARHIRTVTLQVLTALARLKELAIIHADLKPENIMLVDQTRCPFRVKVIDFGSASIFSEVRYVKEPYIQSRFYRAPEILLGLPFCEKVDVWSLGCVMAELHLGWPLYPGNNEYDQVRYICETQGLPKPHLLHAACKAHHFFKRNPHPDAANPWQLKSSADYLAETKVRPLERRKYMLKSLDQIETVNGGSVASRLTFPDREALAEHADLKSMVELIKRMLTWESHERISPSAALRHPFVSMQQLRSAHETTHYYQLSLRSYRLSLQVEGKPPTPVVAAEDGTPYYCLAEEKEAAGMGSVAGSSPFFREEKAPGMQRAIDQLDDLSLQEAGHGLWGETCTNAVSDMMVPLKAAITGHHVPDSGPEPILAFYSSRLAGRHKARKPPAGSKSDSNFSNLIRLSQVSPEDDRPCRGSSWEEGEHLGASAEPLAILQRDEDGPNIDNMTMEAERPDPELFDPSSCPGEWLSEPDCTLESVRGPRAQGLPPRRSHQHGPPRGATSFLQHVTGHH

[7] = tested on: Phosphatidylinositol 4,5-bisphosphate 3-kinase catalytic subunit alpha isoform (Homo sapiens), P42336 [Q546K]; settings: at 10 µM
Chain of Phosphatidylinositol 4,5-bisphosphate 3-kinase catalytic subunit alpha isoform (Homo sapiens), P42336 [Q546K] (P42336 whole entry Q546K, canonical isoform): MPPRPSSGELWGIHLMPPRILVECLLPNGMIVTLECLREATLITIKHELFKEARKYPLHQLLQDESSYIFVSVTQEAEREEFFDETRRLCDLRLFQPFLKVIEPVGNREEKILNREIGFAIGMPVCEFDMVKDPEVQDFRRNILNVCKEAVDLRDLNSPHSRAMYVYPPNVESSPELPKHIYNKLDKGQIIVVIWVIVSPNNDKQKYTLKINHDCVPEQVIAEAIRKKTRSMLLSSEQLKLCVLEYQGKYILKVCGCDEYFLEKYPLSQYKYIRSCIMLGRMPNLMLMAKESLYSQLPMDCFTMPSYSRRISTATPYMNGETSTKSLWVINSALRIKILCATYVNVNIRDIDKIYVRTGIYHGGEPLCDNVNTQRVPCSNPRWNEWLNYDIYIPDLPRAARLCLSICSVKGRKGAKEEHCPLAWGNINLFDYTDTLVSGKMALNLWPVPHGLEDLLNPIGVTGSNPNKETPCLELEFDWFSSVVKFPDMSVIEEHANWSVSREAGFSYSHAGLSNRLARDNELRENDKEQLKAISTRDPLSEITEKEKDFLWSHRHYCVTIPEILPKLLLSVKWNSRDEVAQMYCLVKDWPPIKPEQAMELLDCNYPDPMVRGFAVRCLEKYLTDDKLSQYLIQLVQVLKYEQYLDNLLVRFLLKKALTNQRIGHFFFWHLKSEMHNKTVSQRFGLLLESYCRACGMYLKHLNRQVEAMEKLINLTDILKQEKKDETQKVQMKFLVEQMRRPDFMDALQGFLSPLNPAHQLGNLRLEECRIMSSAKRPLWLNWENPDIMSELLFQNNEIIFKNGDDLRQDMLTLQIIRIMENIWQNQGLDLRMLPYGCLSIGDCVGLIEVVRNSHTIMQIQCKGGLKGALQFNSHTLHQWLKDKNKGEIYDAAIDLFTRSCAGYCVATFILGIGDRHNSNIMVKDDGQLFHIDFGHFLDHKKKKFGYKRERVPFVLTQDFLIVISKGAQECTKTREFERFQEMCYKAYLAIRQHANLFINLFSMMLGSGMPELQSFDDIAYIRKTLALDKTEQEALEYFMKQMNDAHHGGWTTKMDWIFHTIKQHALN

[8] = target: Ribosomal protein S6 kinase alpha-2 (Homo sapiens) (UniProt Q15349); assay: Selectivity interaction (Kinome Scan (DiscoverX)) EUB0000229b RPS6KA2; settings: at 10 µM
[9] = tested on: Tyrosine-protein kinase ABL1 (Homo sapiens), P00519 [Q252H]; assay: Selectivity interaction (KinomeScan (DiscoverX)) EUB0000229b ABL1; settings: at 1 µM
[10] = target: Serine/threonine-protein kinase pim-3 (Homo sapiens) (UniProt Q86V86); assay: Selectivity interaction (KinomeScan (DiscoverX)) EUB0000229b PIM3; settings: at 10 µM
[11] = target: Homeodomain-interacting protein kinase 2 (Homo sapiens, UniProt Q9H2X6); assay: Selectivity interaction (KinomeScan (DiscoverX)) EUB0001079a HIPK2; settings: at 1 µM
[12] = target: T2, Rhodopsin kinase GRK7 (Homo sapiens) (UniProt Q8WTQ7); assay: Selectivity interaction (ProQinase) EUB0000171b GRK7
T2 sequence (whole entry): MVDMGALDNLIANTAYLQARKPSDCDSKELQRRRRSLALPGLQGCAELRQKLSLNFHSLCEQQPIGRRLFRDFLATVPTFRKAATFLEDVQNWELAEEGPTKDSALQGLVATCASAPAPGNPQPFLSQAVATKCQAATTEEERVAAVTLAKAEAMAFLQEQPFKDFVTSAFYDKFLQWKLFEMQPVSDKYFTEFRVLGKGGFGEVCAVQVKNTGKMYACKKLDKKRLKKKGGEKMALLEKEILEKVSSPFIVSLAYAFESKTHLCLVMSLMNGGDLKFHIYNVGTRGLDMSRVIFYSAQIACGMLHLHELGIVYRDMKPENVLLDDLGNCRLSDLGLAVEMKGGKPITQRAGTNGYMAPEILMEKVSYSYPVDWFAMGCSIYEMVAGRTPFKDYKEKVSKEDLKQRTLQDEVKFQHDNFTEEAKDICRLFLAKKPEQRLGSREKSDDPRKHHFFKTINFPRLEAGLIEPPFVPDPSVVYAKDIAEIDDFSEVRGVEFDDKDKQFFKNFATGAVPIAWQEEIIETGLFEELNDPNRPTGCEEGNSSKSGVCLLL

[13] = target: Mitogen-activated protein kinase 11 (Homo sapiens) (UniProt Q15759); assay: Selectivity interaction (KinomeScan (DiscoverX)) EUB0000092b MAPK11; settings: at 10 µM
[14] = target: Tyrosine-protein kinase receptor Tie-1 (Homo sapiens) (UniProt P35590); assay: Selectivity interaction (KinomeScan (DiscoverX)) EUB0000655a TIE1; settings: at 10 µM
[15] = target: T3, Serine/threonine-protein kinase 4 (Homo sapiens) (UniProt Q13043); assay: Selectivity interaction (SelectScreen profiling (Invitrogen)) EUB0000607a STK4; settings: at 2 µM
T3 sequence (whole entry): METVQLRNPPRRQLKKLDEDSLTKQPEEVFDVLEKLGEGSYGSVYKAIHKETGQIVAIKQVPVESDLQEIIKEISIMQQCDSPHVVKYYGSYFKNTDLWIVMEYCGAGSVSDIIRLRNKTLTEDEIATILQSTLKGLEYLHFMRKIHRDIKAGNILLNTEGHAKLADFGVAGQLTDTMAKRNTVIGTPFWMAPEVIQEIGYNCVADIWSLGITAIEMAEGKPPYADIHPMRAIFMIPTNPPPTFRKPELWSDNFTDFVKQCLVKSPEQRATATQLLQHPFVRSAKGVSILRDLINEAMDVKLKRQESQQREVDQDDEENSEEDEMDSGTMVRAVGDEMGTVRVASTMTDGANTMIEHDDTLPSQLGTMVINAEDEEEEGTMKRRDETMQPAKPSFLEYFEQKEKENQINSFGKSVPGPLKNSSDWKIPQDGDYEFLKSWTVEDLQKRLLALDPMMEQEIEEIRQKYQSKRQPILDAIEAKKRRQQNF

[16] = target: Activin receptor type-2A (Homo sapiens) (UniProt P27037); assay: Selectivity interaction (KinomeScan (DiscoverX)) EUB0000607a ACVR2A; settings: at 10 µM

Chain of Serine/threonine-protein kinase 10 (Homo sapiens) (O94804 whole entry, looked up): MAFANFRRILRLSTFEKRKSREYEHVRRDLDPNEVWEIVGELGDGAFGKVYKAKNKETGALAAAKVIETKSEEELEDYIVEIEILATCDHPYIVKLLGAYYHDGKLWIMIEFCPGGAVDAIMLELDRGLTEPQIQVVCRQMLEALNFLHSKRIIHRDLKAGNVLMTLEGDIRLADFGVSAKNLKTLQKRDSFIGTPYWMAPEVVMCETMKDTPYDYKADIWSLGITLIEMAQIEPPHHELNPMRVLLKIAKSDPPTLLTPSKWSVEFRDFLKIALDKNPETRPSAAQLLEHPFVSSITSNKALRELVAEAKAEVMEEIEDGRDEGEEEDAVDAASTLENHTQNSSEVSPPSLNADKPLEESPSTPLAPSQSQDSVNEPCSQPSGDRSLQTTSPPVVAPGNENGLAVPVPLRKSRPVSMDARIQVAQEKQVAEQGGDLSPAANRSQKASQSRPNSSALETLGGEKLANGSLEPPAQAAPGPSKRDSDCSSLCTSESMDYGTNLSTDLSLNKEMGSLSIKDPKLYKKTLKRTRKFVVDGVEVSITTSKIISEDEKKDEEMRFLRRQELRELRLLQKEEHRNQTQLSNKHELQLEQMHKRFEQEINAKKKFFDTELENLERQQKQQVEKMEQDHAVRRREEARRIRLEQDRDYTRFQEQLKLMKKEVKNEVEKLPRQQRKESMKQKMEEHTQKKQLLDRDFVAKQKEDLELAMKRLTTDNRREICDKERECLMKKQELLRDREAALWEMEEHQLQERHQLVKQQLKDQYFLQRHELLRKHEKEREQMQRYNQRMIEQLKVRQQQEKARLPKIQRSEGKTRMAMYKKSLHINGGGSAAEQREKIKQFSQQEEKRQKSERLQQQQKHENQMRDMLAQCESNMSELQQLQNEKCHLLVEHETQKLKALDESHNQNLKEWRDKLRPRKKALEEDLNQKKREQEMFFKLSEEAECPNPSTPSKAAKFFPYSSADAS

- % of inhibition [1]: -97%
- % of inhibition ([2]; at 0.01 µM): 14.9%
- % of inhibition ([2]; at 0.04 µM): 0%
- % of inhibition ([2]; at 0.2 µM): -4.2%
- % of inhibition ([2]; at 1 µM): 14.1%
- % of inhibition ([2]; at 5 µM): 18.6%
Compound: CC[C@@H]1[C@H](F)C(=O)N[C@@H]1COc1nccc2cc(C(N)=O)c(OC)cc12 [ZIMLOVISERTIB]

- % of inhibition [3]: 90.6%
- % of control [4]: -0.23%
Compound: Cn1cc(-n2cnc3c(NCc4nc5cc(Cl)c(Cl)cc5[nH]4)nc(N4CCOCC4)nc32)cn1

- % of control [5]: 100%
Compound: CCN(CC)CCCCNc1ncc2cc(-c3cc(OC)cc(OC)c3)c(NC(=O)NC(C)(C)C)nc2n1

Compound: COCC(=O)NC/C=C/c1ccc2ncnc(Nc3ccc(Oc4ccc(C)nc4)c(C)c3)c2c1 [CP-724714]
- % of control [6]: 95%
- % of control [7]: 38%

Compound: COc1cc(N(C)c2ccnc3ccc(C(F)(F)F)cc23)cc(OC)c1OC
- % binding [8]: 84%
- % binding [9]: 91%
- % binding [10]: 78%

Compound: Nc1cnc(N2CCc3cc(S(=O)(=O)Nc4c(F)cc(Cl)cc4F)cc(N4CCCC4=O)c32)nc1 [TP-020n]
- % of control [11]: 100%

- % of control ([12]; at 1 µM): 100%
- % of control ([12]; at 5 µM): 99%
Compound: C=CC(=O)Nc1cccc(C(=O)Nc2ccc(Nc3cc(-c4[nH]c(SC)nc4C)ccn3)cc2)c1

Compound: CCC(=O)N1CCN(c2ccc(-n3c(=O)ccc4cnc5ccc(-c6cnc7ccccc7c6)cc5c43)cc2C(F)(F)F)CC1
- % of control [13]: 53%

Compound: CN(C)CCOc1ccc(-c2nc(-c3ccncc3)c(-c3ccc4c(c3)CC/C4=N\O)[nH]2)cc1
- % of control [14]: 44%

Compound: CNC(=O)Nc1ccc(-c2nc(N3CC4CCC(C3)O4)c3cnn(C4CCC5(CC4)OCCO5)c3n2)cc1
- % of inhibition [15]: 12%
- % of control [16]: 78%
